Assay [1] is described as follows: inhibitors of Her2 kinase expression, dose response, cell-based, AlphaScreen, CellTiter-Glo viability (AID 742). The following applies: human cells, Her2 expression AlphaScreen; CTG viability; at 9.62 µM (top of the series).
Assay [2] relates to human cells, Her2 expression AlphaScreen; CTG viability. Described as above. The following applies: viability, CellTiter-Glo.

pEC50: −log10 of the molar value. Calls of active or inactive are those of the source. How the calls were made is not given here. Some results are limits rather than exact numbers.

Broadly, the pEC50 is the EC50 on a negative log10 scale, so that one unit is a factor of ten. A high value points to a low EC50.

With `CCCCn1c(SCc2c(C)noc2C)nc2cc(S(N)(=O)=O)ccc21`, the Her2 inhibition in assay [1] was -2.2% (inactive). In addition, the pEC50 in assay [2] was under 5.02.
For `CC(O)CCc1nc2ccc(C(=O)O)cc2[nH]1` (centres undefined), in that order: -23.7% (inactive) and under 5.02.
As for `COCc1cc(C)nc(Nc2ccc(C)c(C)c2)c1C#N`, the Her2 inhibition in assay [1] is 20.5% (inactive). The pEC50 in assay [2] is under 5.02.
`Cn1c(Cl)cnc1C1CC(=O)c2cc(Cl)ccc2O1` (centres undefined): in assay [1], the Her2 inhibition was 15.6% (inactive). Also, the negative-log EC50 (pEC50) in assay [2] is under 5.02.
With `CCn1c(SCC(=O)C(C)(C)C)nnc1-c1cnccn1`, in assay [1], the Her2 inhibition is 2.82% (inactive). For the same compound, in assay [2], the pEC50 was under 5.02.
For `C=C(C)COc1ccc(-c2n[nH]c(C)c2-c2ccccc2)c(O)c1`, the Her2 inhibition in assay [1] is -3.91% (inactive). For the same compound, the pEC50 in assay [2] was under 5.02.
Turning to `CCCCNC(=O)OCCNC(=O)NC`, the Her2 inhibition in assay [1] is -40% (inactive). The compound further gave a negative-log EC50 (pEC50) in assay [2] of under 5.02.
With `CC(C)N(Cc1nc(-c2ccccc2)no1)C(=O)CN1C(=O)c2ccccc2C1=O`, the Her2 inhibition in assay [1] was -1.52% (inactive). The compound further showed a pEC50 in assay [2] of under 5.02.
For the compound `O=S(=O)(c1ccc2c(c1)C(=NO)c1cc(S(=O)(=O)N3CCCCC3)ccc1-2)N1CCCCC1`, the Her2 inhibition in assay [1] is 27.4% (inactive). The pEC50 in assay [2] was over 7.62.
Regarding `O=C1c2cccc3cccc(c23)C(=O)N1c1nncs1`, the Her2 inhibition in assay [1] is -25.5% (inactive). In addition, the pEC50 in assay [2] was under 5.02.
For `CCn1c(=N)n(CC(=O)C23CC4CC(CC(C4)C2)C3)c2ccccc21`, in that order: -15.5% (inactive) and under 5.02.
On to `CCn1c(C)cc(=S)c2ccccc21`, for which the Her2 inhibition in assay [1] is -25.6% (inactive). Further, the pEC50 in assay [2] is under 5.02.
`COc1cc(-c2nc(-c3ccc(NC(=O)c4ccc5c(c4)OCO5)cc3)no2)cc(OC)c1OC`: the Her2 inhibition in assay [1] is -12.5% (inactive). The negative-log EC50 (pEC50) in assay [2] is under 5.02.
In the case of `Cc1ccc2nc(Nc3ccccc3)c(/C=N/O)c(=O)n2c1`, the Her2 inhibition in assay [1] was -10.3% (inactive). The negative-log EC50 (pEC50) in assay [2] was under 5.02.
With `O=C(c1ccc(F)cc1)C(CN1CCOCC1)c1ccccc1` (centres undefined), the Her2 inhibition in assay [1] was 28.5% (inactive). Besides, the negative-log EC50 (pEC50) in assay [2] was under 5.02.
For the compound `CCN(CC(=O)NCc1cccs1)c1nnnn1-c1ccccc1`, in assay [1], the Her2 inhibition was -22.3% (inactive). In assay [2], this compound showed a pEC50 of under 5.02.
Consider `c1ccc(CNC2=NCCC2)nc1`, for which the Her2 inhibition in assay [1] was -3.59% (inactive). In addition, the pEC50 in assay [2] was under 5.02.
As for `CCCCC(C(=O)O)C(C)CC(=O)Nc1cccc(C(=O)O)c1` (centres undefined), in assay [1], the Her2 inhibition was -10.2% (inactive). In addition, the negative-log EC50 (pEC50) in assay [2] was under 5.02.
Turning to `CCCn1c(Nc2nc3ccccc3n2C)nc2ccccc21`, the Her2 inhibition in assay [1] was -10.1% (inactive). In assay [2], the pEC50 is under 5.02.
For `CC(=O)Nc1cc(OC(C)=O)c2nonc2c1OC(C)=O`, in that order: 22.3% (inactive) and under 5.02.
Take `O=C1C2=C(SCCS2)C(=O)N1CCCO`: in assay [1], the Her2 inhibition was -25% (inactive). This compound also showed a pEC50 in assay [2] of under 5.02.
For `Cc1ccc(C(CC(=O)c2ccco2)SCCO)cc1` (centres undefined), in that order: 10.4% (inactive) and under 5.02.
`Cc1ccc(/C=C/C2=Cc3c(sc(NC(=O)CSc4n[nH]c(N)n4)c3C#N)C(C)(C)C2)o1`: the Her2 inhibition in assay [1] was -0.68% (inactive). The compound further showed a pEC50 in assay [2] of under 5.02.
As to `COc1ccc(OCC(=O)NCc2cccnc2)cc1`, in assay [1], the Her2 inhibition was -22.7% (inactive). The pEC50 in assay [2] was under 5.02.
For `N#CCSc1nc2cc(C(=O)N3CCC(C(N)=O)CC3)ccc2c2nc3ccccc3n12`, the Her2 inhibition in assay [1] was 5.14% (inactive). The pEC50 in assay [2] is under 5.02.
On to `O=C1CC(Sc2nnnn2C2CCCCC2)C(=O)N1c1ccccc1` (centres undefined), for which the Her2 inhibition in assay [1] was -12.8% (inactive). The compound also showed a negative-log EC50 (pEC50) in assay [2] of under 5.02.
Turning to `CCCCCNC(=O)C(C#N)c1nc2ccccc2nc1N1CCCC1` (centres undefined), the Her2 inhibition in assay [1] is -19% (inactive). Also, in assay [2], the negative-log EC50 (pEC50) is under 5.02.
